Data: patent US20180353501A1 (Arvinas, Inc., priority 2017, published 2018)
Values joined by “and” are separate entries in the source; they are usually repeats but may differ in a detail not shown here. Equal values may be shown once. Read-outs that look alike come from different tables or passages of the source.

Columns and labels:
[1] = target: T1, p38δ:PROTAC:VHL ternary complex (Homo sapiens, UniProt O15264+P40337); assay: SPR ternary complex affinity and kinetics; assay type: binding; settings: for Kd: equimolar p38δ:PROTAC injected onto immobilized GST-VBC
T1 construct: encoding a region spanning amino acids 1-365 was PCR-amplified; His6 (N); made in house; host or cells: E. coli (BL21-CodonPlus(DE3)-RIPL for p38δ; BL21(DE3) for GST-VBC)
Experimental: FIGS. 16A, 16B, and 16C. SPR curves assessing binary and ternary interactions. […] (C) SPR kinetic evaluation of p38δ:compound 46:VHL and p38δ:compound 50:VHL ternary complex interactions. Equimolar p38δ:PROTAC mixtures were injected onto immobilized GST-VBC and allowed to dissociate overtime. […] See Table 12 for a summary of the binary and ternary affinity and kinetic measurements.
Next, with the same setup, equimolar p38δ:PROTAC dilutions were successively injected onto immobilized VHL for 60 seconds, prior to monitoring complex dissociation for the remaining 300 seconds. This SPR strategy enabled us to determine effective ternary affinities for a given p38δ:PROTAC:VHL complex and compare the relative affinity change that occurs between VHL:PROTAC when p38δ is present in the mixture. […] This “enhanced” composite affinity is likely due to the additional PPIs between VHL and p38δ when in the presence of exemplary compound 46.
SPR experiments were conducted on a Biacore 3000 instrument (GE Healthcare) at room temperature. GST antibody was immobilized through direct amination onto a carboxymethylated dextran surface (CM5) and GST-VBC was captured on the CM5 surface. This prepared surface was equilibrated over three hours in running buffer (10 mM HEPES buffer pH 7.4, 150 mM NaCl, 0.4 mg mL^−1 BSA, 0.005% P20, 2% DMSO). All compounds were prepared in 100% DMSO stock plates with a top concentration of 500 μM in a 3× serial dilution. Exemplary compounds were transferred from the stock plate to the assay plate and diluted into running buffer without DMSO. Equimolar concentration of target protein was added to corresponding compound wells. All exemplary compounds were run as a twelve point-concentration series with a final assay top concentration of 50 μM to measure p38δ:PROTAC and VHL:PROTAC binding and top concentration of 5 μM to measure p38δ:PROTAC:VHL binding. All exemplary compounds were injected for 60 seconds and allowed to dissociate for 300 seconds. Data analysis was performed in Scrubber 2 (BioLogic Software). Blanks from reference flow cell containing immobilized GST-VBC were subtracted to correct for noise and data was solvent-corrected against a standard DMSO curve.

p38δ = target: T2, p38δ (Homo sapiens, UniProt O15264); assay: Cellular thermal shift assay (CETSA), MDA-MB-231 cell lysate; assay type: cell-based; settings: 100 μM, 30 minutes, 51-55° C., vs DMSO
T2 construct: endogenous in cells; host or cells: MDA-MB-231 (intact cells for degradation; cleared cell lysate for CETSA)
T2 sequence (O15264 1-365): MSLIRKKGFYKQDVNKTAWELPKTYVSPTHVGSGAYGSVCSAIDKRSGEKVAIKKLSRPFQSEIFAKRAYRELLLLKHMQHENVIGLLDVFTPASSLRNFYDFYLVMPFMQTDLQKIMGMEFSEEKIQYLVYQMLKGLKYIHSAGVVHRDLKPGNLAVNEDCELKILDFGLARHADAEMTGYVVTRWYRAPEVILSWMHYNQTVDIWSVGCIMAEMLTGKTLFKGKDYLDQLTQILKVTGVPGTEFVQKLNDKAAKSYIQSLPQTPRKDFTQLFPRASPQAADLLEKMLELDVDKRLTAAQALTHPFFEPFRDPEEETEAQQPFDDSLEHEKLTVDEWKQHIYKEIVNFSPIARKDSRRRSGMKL
Experimental: FIGS. 17A and 17B. […] (A) Cellular thermal shift assay (CETSA) was conducted in MDA-MB-231 cells as a means to monitor cellular target engagement. Cell lysate was incubated with either vehicle (DMSO), exemplary compound 50 (100 μM), or exemplary compound 46 (100 μM) for 30 minutes prior to melting at the indicated temperatures. Assay was performed in duplicate and western blots of p38δ and α-tubulin (negative control) are shown. (B) Raw band intensities from (A) were measured, averaged, and reported (with SD) with increasing temperature (51-55° C.) from left-to-right. Top: p38δ CETSA analysis. […] Bottom: α-tubulin CETSA analysis.
To further assess these findings, a more biologically-relevant context for measuring ternary complex formation was used. […] Thus, whether PROTAC-induced PPIs could be monitored in a complex cellular environment using CETSA was examined. […]
CETSA protocol was adapted from (Mateus A, Maatta T A, & Savitski M M (2016) Thermal proteome profiling: unbiased assessment of protein state through heat-induced stability changes. Proteome Sci 15:13). […] After cooling, samples were spun down for 20 minutes (14,000×g at 4° C.) and the supernatant (soluble fraction) was analyzed by SDS-PAGE and immunoblotted for p38δ and alpha-tubulin (negative control).

[2] = SPR, immobilized GST-VBC, listed as Ex. 50

T1 sequence (P40337 whole entry, one chain of several, the tested form may be a part): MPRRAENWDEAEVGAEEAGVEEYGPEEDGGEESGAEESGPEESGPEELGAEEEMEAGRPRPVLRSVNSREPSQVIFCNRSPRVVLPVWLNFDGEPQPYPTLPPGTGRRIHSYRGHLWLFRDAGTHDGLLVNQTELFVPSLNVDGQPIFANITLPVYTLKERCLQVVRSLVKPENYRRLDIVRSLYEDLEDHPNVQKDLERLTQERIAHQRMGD
T1 sequence (Q15370 whole entry partner, one chain of several, the tested form may be a part): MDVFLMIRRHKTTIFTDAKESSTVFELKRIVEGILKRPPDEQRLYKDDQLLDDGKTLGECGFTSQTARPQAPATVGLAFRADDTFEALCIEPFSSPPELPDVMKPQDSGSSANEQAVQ
T1 sequence (Q15369 whole entry partner, one chain of several, the tested form may be a part): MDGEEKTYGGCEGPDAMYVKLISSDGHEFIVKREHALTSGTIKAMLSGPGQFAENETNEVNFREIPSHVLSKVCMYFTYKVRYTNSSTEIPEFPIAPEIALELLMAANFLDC

leftward shift of ternary affinity from the VHL:PROTAC binary affinity ([1]; SPR) | koff ([1]; SPR, immobilized GST-VBC) | p38δ:PROTAC:VHL kon ([1]; SPR, immobilized GST-VBC, listed as Ex. 46) | Kd ([1]; read-out: p38δ:PROTAC:VHL Kd) | SMILES | kon ([1]; SPR, immobilized GST-VBC) | residence time ([1]; SPR, immobilized GST-VBC) | thermal shift in the p38δ melting profile (p38δ) | off-rate quicker than the p38δ:compound 46:VHL complex ([1]; SPR) | residence time shorter than the p38δ:compound 46:VHL complex ([1]; SPR) | ternary affinity weaker than the exemplary compound 46-induced complex ([1]; SPR) | p38δ:PROTAC:VHL koff [1, 2] | p38δ:PROTAC:VHL kon [1, 2] | Kd ([1]; read-out: p38δ:PROTAC:VHL affinity)
~8 fold | 0.0175 s⁻¹ | 39621 M⁻¹ s⁻¹ | 436 nM | COc1cc2c(Oc3ccc(NC(=O)C4(C(=O)Nc5ccc(F)cc5)CC4)cc3F)ccnc2cc1OCCOCCOCCOc1cc(-c2scnc2C)ccc1CNC(=O)[C@@H]1C[C@@H](O)CN1C(=O)[C@H](C(C)C)N1Cc2ccccc2C1=O [compound 46] | 39600 M⁻¹ s⁻¹ | 5.5 min | more pronounced at each melting temperature tested |  |  |  |  |  | 
 |  |  |  | COc1cc2c(Oc3ccc(NC(=O)C4(C(=O)Nc5ccc(F)cc5)CC4)cc3F)ccnc2cc1OCCCCOCCCCOCC(=O)N[C@H](C(=O)N1C[C@H](O)C[C@H]1C(=O)NCc1ccc(-c2scnc2C)cc1)C(C)(C)C [compound 50, N-(3-fluoro-4-((7-(4-(4-(2-(((S)-1-((2S,4R)-4-hydroxy-2-((4-(4-methylthiazol-5-yl)benzyl)carbamoyl)pyrrolidin-1-yl)-3,3-dimethyl-1-oxobutan-2-yl)amino)-2-oxoethoxy)butoxy)buto-xy)-6-methoxyquinolin-4-yl)oxy)phenyl)-N-(4-fluorophenyl)cyclopropane-1,1-dicarboxa-mide] | 70100 M⁻¹ s⁻¹ | 1.33 min | small, but statistically-significant (p=0.0121) thermal shift | ~5 fold | ~4 fold | ~3 fold | 0.072 s⁻¹ | 70119 M⁻¹ s⁻¹ | 1200 nM and > 1000 nM
